Experimental findings from PubChem BioAssay (NCI) are described below.

Test systems include K-562 leukemia; HCT-15 colon; 786-0 renal; A549 NSCLC; NCI-H226 lung; CAKI-1 renal; CCRF-CEM leukemia; OVCAR-5 ovarian; MDA-MB-231 breast; BT-549 breast.
What all share (assay): NCI anticancer screen, dose series, 48 h

Where “and” joins values, the source holds several entries; their conditions need not be identical. Equal entries are not always repeated.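 These data come from cells grown in 96-well plates and exposed to compound for 48 hours at five concentrations. GI50 = concentration required for 50% inhibition of growth. TGI is the concentration that stops growth completely.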 Where only a bound is given, the exact number is not on record here.

For `NC(=O)c1cc(-c2ccc(F)cc2)cc(-c2ccncc2)c1N`, the GI50 in the assay with K-562 leukemia is over 25 µM; in the assay with HCT-15 colon, over 25 µM; in the assay with 786-0 renal, over 25 µM; with A549 NSCLC it was over 25 µM; with NCI-H226 lung, 19.9 µM; in the assay on CAKI-1 renal, 13.7 µM. Also, the GI50 in the assay with CCRF-CEM leukemia, with OVCAR-5 ovarian, in the assay with MDA-MB-231 breast and in the assay on BT-549 breast was over 25 µM throughout. Besides, the TGI with K-562 leukemia, in the assay with HCT-15 colon, with 786-0 renal, with A549 NSCLC, in the assay on NCI-H226 lung and with CAKI-1 renal was over 25 µM throughout. For the same molecule, the TGI in the assay with CCRF-CEM leukemia, in the assay on OVCAR-5 ovarian, with MDA-MB-231 breast and in the assay with BT-549 breast was over 25 µM in each case.
In the case of `COc1cc(Nc2ccnc(NCCCNc3ccnc4cc(Cl)ccc34)n2)cc(OC)c1`, the GI50 is 0.52 µM in the assay with K-562 leukemia; 1.51 µM with HCT-15 colon; 1.59 µM in the assay on 786-0 renal; 2.09 µM in the assay on A549 NSCLC; 2.5 µM with NCI-H226 lung; 1.62 µM in the assay with CAKI-1 renal. For the same molecule, the GI50 was 1.19 µM in the assay on CCRF-CEM leukemia, 2.01 µM with OVCAR-5 ovarian, 1.5 µM with MDA-MB-231 breast and 1.79 µM with BT-549 breast. In addition, the TGI in the assay on K-562 leukemia stood at 2.39 µM; in the assay on HCT-15 colon it was 3.09 µM; in the assay with 786-0 renal, 3.12 µM; in the assay on A549 NSCLC it was 5.46 µM; in the assay on NCI-H226 lung, 9.16 µM; with CAKI-1 renal, 3.26 µM. The TGI in the assay on CCRF-CEM leukemia was 3.88 µM; with OVCAR-5 ovarian it was 6 µM; in the assay with MDA-MB-231 breast, 3.16 µM; with BT-549 breast, 4.42 µM.
Consider `COC(=O)C1=C(C)NC(C)=C(C(=O)OC)C1/C=C(Cl)/C=C/c1ccccc1`, for which the GI50 was 22.8 µM with K-562 leukemia; 29.7 µM with HCT-15 colon; 25.9 µM with 786-0 renal; 28.8 µM with A549 NSCLC; 24.8 µM with NCI-H226 lung; 20.7 µM in the assay with CAKI-1 renal. The GI50 in the assay on CCRF-CEM leukemia was 29.6 µM; with OVCAR-5 ovarian, 19.4 µM; with MDA-MB-231 breast it was 17.9 µM; with BT-549 breast it was 21.6 µM. Also, the TGI was 54.7 µM in the assay with K-562 leukemia; over 100 µM in the assay with HCT-15 colon; 70.5 µM in the assay on 786-0 renal; over 100 µM in the assay on A549 NSCLC; 73.2 µM in the assay on NCI-H226 lung; 49.3 µM with CAKI-1 renal. Moreover, the TGI with CCRF-CEM leukemia is 60 µM; with OVCAR-5 ovarian, 54.2 µM; with MDA-MB-231 breast, 36.7 µM; with BT-549 breast, 55.7 µM.
Consider `NC(=O)c1ccc2nc(-c3ccc(Oc4ccc(Cl)cc4)cc3)[nH]c2c1`, for which the GI50 was 37.8 µM and 10.3 µM with K-562 leukemia; 23.6 µM and 12.6 µM in the assay on HCT-15 colon; 48 µM and 16.1 µM with 786-0 renal; 49.8 µM and 10.4 µM with A549 NSCLC; 49.1 µM and 14 µM with NCI-H226 lung; 6.4 µM and 16.5 µM with CAKI-1 renal. Further, the GI50 in the assay with CCRF-CEM leukemia is 23.5 µM and 15.7 µM; in the assay on OVCAR-5 ovarian, > 75 µM and 18.6 µM; in the assay on MDA-MB-231 breast, > 75 µM and 18.8 µM; in the assay on BT-549 breast it was 18 µM and 12.9 µM. The TGI in the assay with K-562 leukemia was 75 µM and 88.3 µM; in the assay on HCT-15 colon it was 75 µM and 31 µM; in the assay with 786-0 renal, 75 µM and 39.4 µM; in the assay on A549 NSCLC, 75 µM and 28 µM; in the assay on NCI-H226 lung, 75 µM and 57.6 µM; in the assay on CAKI-1 renal it was 39.6 µM and 49.8 µM. Further, the TGI in the assay with CCRF-CEM leukemia was 75 µM and 64.1 µM; in the assay with OVCAR-5 ovarian, > 75 µM and 36.8 µM; in the assay on MDA-MB-231 breast, > 75 µM and 36.3 µM; in the assay with BT-549 breast it was 67.1 µM and 28.2 µM.
For `Nc1nc(-c2ccc(F)cc2)c(-c2ccc3ncccc3n2)s1`, the GI50 in the assay with K-562 leukemia is over 18.5 µM; with HCT-15 colon, 14.1 µM; with 786-0 renal, 16.9 µM; with A549 NSCLC, 13.7 µM; in the assay on NCI-H226 lung, 11.8 µM; in the assay on CAKI-1 renal, 9.27 µM. Moreover, the GI50 in the assay on CCRF-CEM leukemia is over 22.1 µM; in the assay with OVCAR-5 ovarian, 14.1 µM; in the assay with MDA-MB-231 breast, over 25 µM; in the assay with BT-549 breast it was 16.1 µM. Besides, the TGI in the assay with K-562 leukemia, in the assay with HCT-15 colon, with 786-0 renal, in the assay on A549 NSCLC, in the assay on NCI-H226 lung and in the assay with CAKI-1 renal was over 25 µM in each case. Also, the TGI in the assay with CCRF-CEM leukemia, with OVCAR-5 ovarian, with MDA-MB-231 breast and in the assay with BT-549 breast was over 25 µM in each case.
Turning to `COc1cc(C2=C(C#Cc3ccccc3)COC2=O)cc(OC)c1OC`, the GI50 in the assay with K-562 leukemia was 0.629 µM; in the assay on HCT-15 colon, 1.3 µM; with 786-0 renal, under 0.0224 µM; in the assay with A549 NSCLC, 14.2 µM; in the assay with NCI-H226 lung it was 1.73 µM; with CAKI-1 renal, 20.3 µM. The GI50 was 3.39 µM in the assay with CCRF-CEM leukemia, 7.89 µM with OVCAR-5 ovarian, 0.492 µM with MDA-MB-231 breast and 3.26 µM in the assay with BT-549 breast. The TGI with K-562 leukemia was over 100 µM; in the assay on HCT-15 colon, 9.39 µM; with A549 NSCLC, over 100 µM; in the assay on NCI-H226 lung, 4.6 µM; in the assay on CAKI-1 renal, over 100 µM; in the assay on CCRF-CEM leukemia, 59.3 µM. Moreover, the TGI was over 57.9 µM in the assay on OVCAR-5 ovarian, 2.95 µM in the assay with MDA-MB-231 breast and 63.1 µM in the assay with BT-549 breast.
